# Measurements from patent US4970225A, “Imidazolidine carboxylic acids and esters as blood platelet aggregation inhibitors” (Bristol-Myers Squibb Company, priority 1990, dated 1990).
# Test system: ADP-induced aggregation of human platelets
# Type: cell-based
# Conditions: Table 1; human platelet rich plasma; ADP 0.5 mcg/mL; read-out: Inhibition of Human Platelet Aggregation IC50 vs. ADP
row,IC50 [µg/mL],Compound
1,11.9,"O=C(O)CCCCCCCCN1C(=O)C(c2ccccc2)N(c2ccccc2)C1=O (centres unmarked) [Example 2, 2,5-dioxo-3,4-diphenyl-1-imidazolidinenonanoic acid]"
2,32,"COC(=O)CCCCCCCCN1C(=O)C(c2ccccc2)N(c2ccccc2)C1=O (centres unmarked) [Example 1, methyl 2,5-dioxo-3,4-diphenyl-1-imidazolidinenonanoate]"
